The AC50 is the concentration giving half of the maximal activity seen.

For 27 molecules, AC50 results are on record in patent US8501953B2, “PKM2 modulators for use in the treatment of cancer” (Agios Pharmaceuticals, Inc, priority 2009, dated 2013).

The target in the experiment is PKM2 (Homo sapiens, UniProt P14618). Nature of the experiment: PKM2 Assay (activation; LDH-coupled, NADH absorbance at 340 nm). The class given is biochemical. The conditions noted are these: PKM2 50 ng/well, ADP 0.7 mM, PEP 0.15 mM, no FBP in Reaction Mix. As to the method: • PKM2 stock enzyme solution was diluted in Reaction Buffer • 2 μL of compound was added into each well first, and then 180 μL of the Reaction Mix was added. • Reaction mixture with compound (without ADP) were incubated for 30 minutes at 4° C. • Plates were re-equilibrated to room temperature prior to adding 20 μL ADP to initiate the reaction. • Reaction progress was measured as changes in absorbance at 340 nm wavelength at room temperature (25° C.) Reaction Mix: PKM2 (50 ng/well), ADP (0.7 mM), PEP (0.15 mM), NADH (180 μM), LDH (2 units) in Reaction Buffer Reaction Buffer: 100 mM KCl, 50 mM Tris pH 7.5, 5 mM MgCl2, 1 mM DTT, 0.03% BSA.
Chain of PKM2 (P14618 whole entry): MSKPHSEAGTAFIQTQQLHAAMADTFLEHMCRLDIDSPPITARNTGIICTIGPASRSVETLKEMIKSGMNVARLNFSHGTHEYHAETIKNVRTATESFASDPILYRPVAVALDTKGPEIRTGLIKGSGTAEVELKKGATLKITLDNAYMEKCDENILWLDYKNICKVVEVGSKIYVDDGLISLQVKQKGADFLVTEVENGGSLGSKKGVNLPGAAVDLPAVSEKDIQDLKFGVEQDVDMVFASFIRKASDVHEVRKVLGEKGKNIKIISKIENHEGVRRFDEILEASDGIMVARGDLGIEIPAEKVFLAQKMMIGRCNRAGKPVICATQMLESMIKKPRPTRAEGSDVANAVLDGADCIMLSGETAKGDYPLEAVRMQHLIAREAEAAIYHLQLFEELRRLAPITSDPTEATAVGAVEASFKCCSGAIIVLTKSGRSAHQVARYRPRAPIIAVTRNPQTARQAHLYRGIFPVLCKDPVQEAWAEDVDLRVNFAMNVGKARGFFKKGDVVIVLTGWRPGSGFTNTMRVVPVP
On to `Cn1c(=O)oc2cc(F)c(S(=O)(=O)Nc3c(F)cccc3F)cc21`, for which the AC50 was above 100 µM.

The molecule `Cn1c(=O)oc2cc(S(=O)(=O)Nc3ccccn3)ccc21` yielded an AC50 of 10 to 50 µM.

`Cc1cc2oc(=O)n(C)c2cc1NS(=O)(=O)c1c(F)cccc1F` showed an AC50 above 100 µM.

Regarding `Cn1c(=O)sc2ccc(NS(=O)(=O)c3cccs3)cc21`, the AC50 was in the range of 10 to 50 µM.

`O=c1oc2cc(S(=O)(=O)Nc3ccc(F)cc3)ccc2n1CCc1ccccc1`: the AC50 was in the range of 1 to 10 µM.

In the case of `Cn1c(=O)oc2cc(S(=O)(=O)Nc3ccc4ccccc4c3)ccc21`, the AC50 lay within 1 to 10 µM.

Turning to `Cc1cc(NS(=O)(=O)c2cc(C)c3c(c2)oc(=O)n3C)ccc1F`, the half-maximal activity concentration (AC50) was below 1 µM.

Molecule `Cn1c(=O)sc2cc(S(=O)(=O)N3CCCN(S(=O)(=O)c4ccccc4)CC3)ccc21` registered an AC50 of 1 to 10 µM.

As to `COc1ccc(C)cc1S(=O)(=O)Nc1ccc2oc(=O)[nH]c2c1`, the AC50 lay within 10 to 50 µM.

In the case of `Cn1c(=O)oc2cc(S(=O)(=O)Nc3ccc(Cl)c(Cl)c3)ccc21`, the AC50 lay within 1 to 10 µM.

For `O=c1[nH]c2cc(NS(=O)(=O)c3c(F)cccc3F)ccc2s1`, the AC50 was in the range of 10 to 50 µM.

In the case of `Cn1c(=O)oc2cc(S(=O)(=O)Nc3cc(Cl)cc(Cl)c3)ccc21`, the AC50 was below 1 µM.

As for `COCCn1c(=O)oc2cc(C)c(S(=O)(=O)Nc3ccc(F)c(C)c3)cc21`, the AC50 was in the range of 1 to 10 µM.

Molecule `Cc1cc2c(cc1S(=O)(=O)N1CCCN(c3ccc(C(F)(F)F)cn3)CC1)oc(=O)n2C` returned a half-maximal activity concentration (AC50) of 1 to 10 µM.

With `Cc1ccc(NS(=O)(=O)c2cc3c(cc2C)oc(=O)n3C)cc1F`, the AC50 was below 1 µM.

Molecule `Cc1cc2c(cc1S(=O)(=O)N1CCN(c3ccc(C(F)(F)F)cn3)CC1)oc(=O)n2C` returned an AC50 of 1 to 10 µM.

Molecule `COc1ccc(Cl)cc1S(=O)(=O)Nc1ccc2sc(=O)[nH]c2c1` had an AC50 of 1 to 10 µM.

With `Cc1cc(C)cc(NS(=O)(=O)c2cc3c(cc2Cl)oc(=O)n3C)c1`, the AC50 was below 1 µM.

As for `Cn1c(=O)oc2cc(Cl)c(S(=O)(=O)Nc3ccccc3F)cc21`, the AC50 is 1 to 10 µM.

Consider `Cn1c(=O)oc2cc(S(=O)(=O)Nc3cccc4ccccc34)ccc21`, for which the AC50 fell in the range of 1 to 10 µM.

`CCn1c(=O)sc2ccc(NS(=O)(=O)c3cc(Cl)ccc3OC)cc21` yielded an AC50 of 1 to 10 µM.

In the case of `Cc1cc2oc(=O)n(C)c2cc1NS(=O)(=O)c1ccc(F)c(F)c1`, the AC50 is above 100 µM.

`Cc1cc(NS(=O)(=O)c2cc(CN3CCCCC3)c3c(c2)oc(=O)n3C)ccc1F` yielded an AC50 of 1 to 10 µM.

Take `Cn1c(=O)oc2cc(S(=O)(=O)Nc3ccc(F)c(F)c3)ccc21`: the AC50 was below 1 µM.

As for `COc1ccc(C)cc1S(=O)(=O)Nc1ccc(NS(=O)(=O)c2ccc3c(c2)oc(=O)n3C)cc1`, the AC50 is 1 to 10 µM.

For the molecule `Cc1cc(C)cc(NS(=O)(=O)c2cc3sc(=O)n(C)c3cc2Cl)c1`, the AC50 was below 1 µM.

`Cn1c(=O)sc2cc(NS(=O)(=O)c3cccs3)ccc21` came in with an AC50 of 10 to 50 µM.
